# Assay results as given in patent US7935687B2, “Methods for treating spinal muscular atrophy using tetracycline compounds” (Paratek Pharmaceuticals, Inc., priority 2007, dated 2011).
# Columns and labels:
# [1] = system: S. aureus (SA RN450); assay: Antibacterial MIC, gram positive; format: cell-based; conditions: CLSI methodology, 35° C., 18-24 hours; for MIC: Staphylococcus aureus
# [2] = system: E. coli (EC D1-209); assay: Antibacterial MIC, gram negative; format: cell-based; conditions: CLSI methodology, 35° C., 18-24 hours; for MIC: Escherichia coli
# [3] = system: SMN2 mRNA; assay: In vitro cell-free splicing assay for inclusion of exon 7; format: biochemical; conditions: HeLa cell nuclear extract, 30° C., 3 hours
# Method: The following example illustrates how tetracycline compound of the invention are active in an in vitro cell-free assay for the inclusion of exon 7 in […] mRNA. SMN1 and SMN2 pre-mRNA were prepared by in vitro transcription using T7 RNA polymerase of minigene templates that include exon 6, a truncated portion of intron 6, exon 7, intron 7 and a portion of exon 8 in the presence of ^32P-UTP. Labeled RNA was purified on a denaturing polyacrylamide gel followed by phenol extraction and ethanol precipitation of the RNA.
# In vitro cell-free splicing of SMN1 and SMN2 transcripts was carried out in a 10 μl reaction volume at 30° C. for 3 hours. The reactions contained 10 fmol of labeled pre-mRNA, 30% (3 VI) HeLa cell nuclear extract (in 20 mM HEPES, pH 7.4, 20% (v/v) glycerol, 0.1M KC1, 0.2 mM EDTA), 1.3% (w/v) polyvinyl alcohol, 1.56 mM MgCl2, 32 mM HEPES, pH 7.4, 0.5 mM ATP, 20 mM creatine phosphate and either 2 μl of test compound (in 20 mM HEPES, pH 7.4, 0.1M KC1, 0.2 mM EDTA) or buffer alone. Following incubation, 200 μl of a solution containing 0.3M NaAc and 0.2% SDS was added to the reaction. Proteins were removed by extraction with an equal volume of phenol and RNA was precipitated with 2.5 volumes of ethanol. RNA was resuspended in formamide sample buffer and separated on a 9% urea-denaturing polyacrylamide gel. Quantitation of splicing was based on phosphorimage analysis (Fujix BAS2000 or Fujifilm FLA-5100). In this assay, percentage exon 7 inclusion averages 12% for the unmutated SMN1 mRNA and 4% for the SMN2 mRNA.
# The in vitro activities for exon 7 splicing are expressed as the Emax (the maximum percentage exon 7 inclusion observed) and Cmax (the lowest compound concentration at which the maximum inclusion occurs in μM). For Emax, percentage inclusion values of less than 10% are indicated by “*”, values of 10-20% are indicated by “**”, and values greater than 20% are indicated by “***”. For Cmax data, concentrations of greater than 40 μM are indicated by “*”, concentrations between 40 and 10 μM are represented by “**” and concentrations of less than 10 μM are represented by “***”.
Compound,MIC Gram Positive (SA RN450) [1],MIC Gram Negative (EC D1-209) [2],Cmax (lowest compound concentration at which the maximum exon 7 inclusion occurs) [3],Emax (maximum percentage exon 7 inclusion observed) [3],MIC [1] [µg/mL],MIC [2] [µg/mL]
CC(C)N1CCN(CC(=O)c2ccc(O)c3c2CC2CC4C(N(C)C)C(O)=C(C(N)=O)C(=O)C4(O)C(O)=C2C3=O)CC1 (stereo not shown) [BX],"*** (Good antibacterial activity (e.g., less than about 4 μg/mL))",* (weak antibacterial activity (greater than about 8 μg/mL)),* (concentrations of greater than 40 μM),* (percentage inclusion values of less than 10%),–,–
CN(C)C1C(O)=C(C(N)=O)C(=O)C2(O)C(O)=C3C(=O)c4c(O)ccc(C(=O)CNc5cccnc5)c4CC3CC12 (stereo not shown) [CB],* (weak antibacterial activity (greater than about 8 μg/mL)),* (weak antibacterial activity (greater than about 8 μg/mL)),** (concentrations between 40 and 10 μM),** (values of 10-20%),–,–
CN(C)C1C(O)=C(C(N)=O)C(=O)C2(O)C(O)=C3C(=O)c4c(O)ccc(C(=O)CNCc5ccco5)c4CC3CC12 (stereo not shown) [CC],** (modest antibacterial activity (between about 4 and 8 μg/mL)),* (weak antibacterial activity (greater than about 8 μg/mL)),*** (concentrations of less than 10 μM),** (values of 10-20%),–,–
CN(C)C1C(O)=C(C(N)=O)C(=O)C2(O)C(O)=C3C(=O)c4c(O)ccc(C(=O)CNCc5cccn5C)c4CC3CC12 (stereo not shown) [CE],"*** (Good antibacterial activity (e.g., less than about 4 μg/mL))",* (weak antibacterial activity (greater than about 8 μg/mL)),*** (concentrations of less than 10 μM),** (values of 10-20%),–,–
CN(C)C1C(O)=C(C(N)=O)C(=O)C2(O)C(O)=C3C(=O)c4c(O)ccc(C(=O)Cc5cncn5C)c4CC3CC12 (stereo not shown) [CG],"*** (Good antibacterial activity (e.g., less than about 4 μg/mL))",* (weak antibacterial activity (greater than about 8 μg/mL)),* (concentrations of greater than 40 μM),** (values of 10-20%),–,–
CC(=O)NCCC(=O)c1ccc(O)c2c1CC1CC3C(N(C)C)C(O)=C(C(N)=O)C(=O)C3(O)C(O)=C1C2=O (stereo not shown) [CI],"*** (Good antibacterial activity (e.g., less than about 4 μg/mL))",* (weak antibacterial activity (greater than about 8 μg/mL)),* (concentrations of greater than 40 μM),** (values of 10-20%),–,–
CN(C)C1C(O)=C(C(N)=O)C(=O)C2(O)C(O)=C3C(=O)c4c(O)ccc(-c5cccc(C(=O)NCCO)c5)c4CC3CC12 (stereo not shown) [CK],"*** (Good antibacterial activity (e.g., less than about 4 μg/mL))",* (weak antibacterial activity (greater than about 8 μg/mL)),** (concentrations between 40 and 10 μM),** (values of 10-20%),–,–
CN(C)CCCCNC(=O)c1cccc(-c2ccc(O)c3c2CC2CC4C(N(C)C)C(O)=C(C(N)=O)C(=O)C4(O)C(O)=C2C3=O)c1 (stereo not shown) [CL],** (modest antibacterial activity (between about 4 and 8 μg/mL)),* (weak antibacterial activity (greater than about 8 μg/mL)),** (concentrations between 40 and 10 μM),*** (values greater than 20%),–,–
CN(C)C1C(O)=C(C(N)=O)C(=O)C2(O)C(O)=C3C(=O)c4c(O)ccc(-c5cccc(CCCO)c5)c4CC3CC12 (stereo not shown) [CM],"*** (Good antibacterial activity (e.g., less than about 4 μg/mL))",* (weak antibacterial activity (greater than about 8 μg/mL)),*** (concentrations of less than 10 μM),** (values of 10-20%),–,–
COC(=O)C1CCN(Cc2ccc(O)c3c2CC2CC4C(N(C)C)C(O)=C(C(N)=O)C(=O)C4(O)C(O)=C2C3=O)CC1 (stereo not shown) [Compound AK],"*** (Good antibacterial activity (e.g., less than about 4 μg/mL))",** (modest antibacterial activity (between about 4 and 8 μg/mL)),** (concentrations between 40 and 10 μM),* (percentage inclusion values of less than 10%),–,–
CN(C)CCNC(=O)c1cccc(-c2ccc(O)c3c2CC2CC4C(N(C)C)C(O)=C(C(N)=O)C(=O)C4(O)C(O)=C2C3=O)c1 (stereo not shown) [Compound A],"*** (Good antibacterial activity (e.g., less than about 4 μg/mL))",* (weak antibacterial activity (greater than about 8 μg/mL)),** (concentrations between 40 and 10 μM),** (values of 10-20%),–,–
"CN(C)CCCCNCc1ccc(O)c2c1C[C@H]1C[C@H]3[C@H](N(C)C)C(O)=C(C(N)=O)C(=O)[C@@]3(O)C(O)=C1C2=O [Compound CN, (4S,4aS,5aR,12aS)-4-Dimethylamino-7-[(4-dimethylamino-butylamino)-methyl]-3,10,12,12a-tetrahydroxy-1,11-dioxo-1,4,4a,5,5a,6,11,12a-octahydro-naphthacene-2-carboxylic Acid Amide]",–,–,*** (concentrations of less than 10 μM),** (values of 10-20%),> 8,> 8
"CCN(CC)CCNC(=O)c1cccc(-c2ccc(O)c3c2C[C@H]2C[C@H]4[C@H](N(C)C)C(O)=C(C(N)=O)C(=O)[C@@]4(O)C(O)=C2C3=O)c1 [Compound E, (4S,4aS,5aR,12aS)-7-[3-(2-Diethylamino-ethylcarbamoyl)-phenyl]-4-dimethylamino-3,10,12,12a-tetrahydroxy-1,11-dioxo-1,4,4a,5,5a,6,11,12a-octahydro-naphthacene-2-carboxylic Acid Amide]",–,–,** (concentrations between 40 and 10 μM),*** (values greater than 20%),< 4,> 8
"CCOC(=O)CCNC(=O)c1cccc(-c2ccc(O)c3c2C[C@H]2C[C@H]4[C@H](N(C)C)C(O)=C(C(N)=O)C(=O)[C@@]4(O)C(O)=C2C3=O)c1 [Compound I, 3-[3-((6aS,10S,10aS,11aR)-8-Carbamoyl-10-dimethylamino-4,6,6a,9-tetrahydroxy-5,7-dioxo-5,6a,7,10,10a,11,11a,12-octahydro-naphthacen-1-yl)-benzoylamino]-propionic Acid Ethyl Ester]",–,–,* (concentrations of greater than 40 μM),*** (values greater than 20%),< 4,> 8
"CN(C)CC(=O)Nc1cccc(-c2ccc(O)c3c2C[C@H]2C[C@H]4[C@H](N(C)C)C(O)=C(C(N)=O)C(=O)[C@@]4(O)C(O)=C2C3=O)c1 [Compound K, (4S,4aS,5aR,12aS)-4-Dimethylamino-7-[3-(2-dimethylamino-acetylamino)-phenyl]-3,10,12,12a-tetrahydroxy-1,11-dioxo-1,4,4a,5,5a,6,11,12a-octahydro-naphthacene-2-carboxylic Acid Amide]",–,–,* (concentrations of greater than 40 μM),* (percentage inclusion values of less than 10%),< 4,> 8
CN(C)CCCC(=O)Nc1cccc(-c2ccc(O)c3c2CC2CC4C(N(C)C)C(O)=C(C(N)=O)C(=O)C4(O)C(O)=C2C3=O)c1 (stereo not shown) [Compound Q],"*** (Good antibacterial activity (e.g., less than about 4 μg/mL))",* (weak antibacterial activity (greater than about 8 μg/mL)),*** (concentrations of less than 10 μM),** (values of 10-20%),–,–
